{
  "source": "patent US10570418B2",
  "about": "“Methods and compositions for RNA-directed target DNA modification” (The Regents of the University of California, priority 2014, dated 2020)",
  "molecules": {"B1": {"name": "template 5: single-stranded HDR template, 90-nt homology arms, non-complementary orientation (SEQ ID NO:1397) (nucleic acid)", "DNA": "TGGCCAGGGAGTGGCCAGAGTCCAGCTTGGGCCCACGCAGGGGCCTGGCCAGCAGCAAGCAGCACTCTGCCCTCGTGGGTTTGTGGTTGCGGATCCAAGCTTTTGGAGGTGACATCGATGTCCTCCCCATTGGCCTGCTTCGTGGCAATGCGCCACCGGTTGATGTGATGGGAGCCCTTCTTCTTCTGCTCG", "modifications": "Synthetic nucleic acid sequence"}},
  "key": {"[1]": {"system": "EMX1 locus in HEK293T cells", "assay": "NHEJ frequency by T7 endonuclease I assay, EMX1 locus, HEK293T cells", "type": "cell-based, human", "details": "for NHEJ frequency: nocodazole-treated cells (200 ng/ml, 17 h), 50-200 ρmol template 1", "description": "(§1) For EMX1: forward [NT] ID NO:1404) and [NT] NO:1405). For DYRK1: forward [NT] ID NO:1406) and reverse [NT] NO:1407)."}, "[2]": {"system": "EMX1 locus in HEK293T cells", "assay": "HDR frequency by HindIII digestion, EMX1 locus, HEK293T cells", "type": "cell-based, human", "details": "for HDR efficiency: 50-200 ρmol template 1", "description": "as §1"}, "human ES cells": {"system": "human ES cells", "assay": "Cell viability of human ES cells during synchronization", "type": "cell-based", "details": "hES cells; aphidicolin treatment after nocodazole, at 10 h"}, "[3]": {"system": "DYRK1 locus in HEK293T cells", "assay": "NHEJ frequency by T7 endonuclease I assay, DYRK1 locus, HEK293T cells", "type": "cell-based, human", "details": "for NHEJ frequency: nocodazole synchronized cells"}, "[4]": {"system": "DYRK1 locus in HEK293T cells", "assay": "HDR frequency by HindIII digestion, DYRK1 locus, HEK293T cells", "type": "cell-based, human", "details": "for HDR frequency: nocodazole synchronized cells"}, "[5]": {"system": "EMX1 locus in human embryonic stem cells (hES)", "assay": "NHEJ frequency by T7 endonuclease I assay, EMX1 locus, human ES cells", "type": "cell-based", "details": "nocodazole synchronization (16 h), 100 ρmol template 4"}, "[6]": {"system": "EMX1 locus in human embryonic stem cells (hES)", "assay": "HDR frequency by HindIII digestion, EMX1 locus, human ES cells", "type": "cell-based", "details": "nocodazole synchronization (16 h), 30 or 100 ρmol Cas9 RNP, template 4"}, "HEK293T cells": {"system": "HEK293T cells", "assay": "FACS analysis of DNA content / cell cycle", "type": "cell-based, human", "details": "nocodazole-treated vs untreated cells", "description": "The first objective was to test whether S phase was ideal for HDR in HEK293T cells. The approach was to chemically and reversibly synchronize the cells at G1, S and M phases (FIG. 1A). Lovastatin blocks at early G1 and partially at G2/M phase, by inhibiting HMG-CoA reductase and resulting in the depletion of mevalonate, which is an essential substrate for cholesterol synthesis. Mimosine arrests cells at the G1-S border prior to onset of DNA replication by an unknown mechanism. […] Excess thymidine causes feedback inhibition of deoxycytosine synthesis. Hydroxyurea blocks cells at S phase by decreasing the production of deoxyribonucleotide via inhibition of the enzyme ribonucleotide reductase. Nocodazole inhibits microtubule polymerization which is a signature structural feature as cells enter mitosis, causing arrest at G2/M phase. The drugs effects were confirmed by fluorescence activated cell sorter (FACS) analysis of the cell cycle (FIG. 1B).\nFIG. 1A-1D depict the effect of cell cycle synchronization on NHEJ and HDR frequencies in HEK293T cells. (A) Chemical inhibitors were used to arrest cells at specific phases of cell cycle. Lovastatin (Lov) blocks cells in G1 phase by inhibiting cholesterol synthesis. […] The mean % NHEJ/HDR and standard deviation (error bars) were calculated from three experiments."}, "[7]": {"details": "30 ρmol of Cas9, 100 ρmol template 1"}, "[8]": {"details": "inhibitor-synchronized cells, 30 ρmol of Cas9, 100 ρmol template 1"}, "[9]": {"details": "30 and 100 ρmol Cas9 RNP, 100 ρmol HDR template 1, inhibitor synchronization before nucleofection"}, "[10]": {"details": "all doses of Cas9 RNP, vs unsynchronized"}, "[11]": {"details": "100 ρmol of Cas9, 100 ρmol template 1"}, "[12]": {"details": "nocodazole synchronization, 30 ρmol Cas9 RNP, 50 ρmol HDR template"}},
  "note": "Entries after “also recorded” stand apart in the source; their conditions may differ.",
  "data": [
    {"molecule": "C[C@@]1(CO)[C@H](O)CC[C@@]2(C)[C@H]1CC[C@H]1C[C@@H]3C[C@@]12CC[C@]3(O)CO", "note": "[aphidicolin]", "values": [
      {"measurement": "NHEJ frequency compared to the unsynchronized cells", "setting": "[1]; [7]", "result": "increased the NHEJ frequency slightly"},
      {"measurement": "HDR frequency", "setting": "[2]; [8]", "result": 15, "unit": "%"},
      {"measurement": "HDR frequency with aphidicolin block", "setting": "[2]; nocodazole synchronized, aphidicolin 2 μg/ml added to media immediately after nucleofection, 30 ρmol Cas9 RNP, 50 ρmol template", "result": "significantly reduced"},
      {"measurement": "Cell viability", "setting": "human ES cells", "result": "substantial drop in cell viability"}
    ]},
    {"molecule": "NC(=O)NO", "note": "[hydroxyurea]", "values": [
      {"measurement": "NHEJ frequency compared to the unsynchronized cells", "setting": "[1]; [9]", "result": "greatly decreased"},
      {"measurement": "HDR frequency compared to the unsynchronized cells", "setting": "[2]; [9]", "result": "greatly decreased"}
    ]},
    {"molecule": "CC[C@H](C)C(=O)O[C@H]1C[C@@H](C)C=C2C=C[C@H](C)[C@H](CC[C@@H]3C[C@@H](O)CC(=O)O3)[C@H]21", "note": "[lovastatin]", "values": [
      {"measurement": "NHEJ frequency compared to the unsynchronized cells", "setting": "[1]; [9]", "result": "greatly decreased"},
      {"measurement": "HDR frequency compared to the unsynchronized cells", "setting": "[2]; [9]", "result": "greatly decreased"}
    ]},
    {"molecule": "NC(Cn1ccc(=O)c(O)c1)C(=O)O", "note": "(centres unmarked) [mimosine]", "values": [
      {"measurement": "NHEJ frequency compared to the unsynchronized cells", "setting": "[1]; [9]", "result": "greatly decreased"},
      {"measurement": "HDR frequency compared to the unsynchronized cells", "setting": "[2]; [9]", "result": "greatly decreased"}
    ]},
    {"molecule": "COC(=O)Nc1nc2ccc(C(=O)c3cccs3)cc2[nH]1", "note": "[nocodazole]", "values": [
      {"measurement": "NHEJ frequency compared to the unsynchronized cells", "setting": "[1]; [7]", "result": "increased the NHEJ frequency slightly"},
      {"measurement": "Increase of NHEJ frequency by synchronization", "setting": "[1]; nocodazole vs unsynchronized, 10 ρmol Cas9 RNP", "result": "two-fold"},
      {"measurement": "Increase of NHEJ frequency by synchronization", "setting": "[1]; nocodazole vs unsynchronized, 30 ρmol Cas9 RNP", "result": 1.5, "unit": "fold"},
      {"measurement": "Enhancement of NHEJ frequency by synchronization", "setting": "[1]; nocodazole vs unsynchronized, 100 ρmol Cas9 RNP", "result": "diminished"},
      {"measurement": "NHEJ frequency", "setting": "[1]; 10 ρmol Cas9 RNP", "result": "15-17%"},
      {"measurement": "NHEJ frequency", "setting": "[1]; 30 ρmol Cas9 RNP", "result": "35-37%"},
      {"measurement": "NHEJ frequency", "setting": "[1]; 100 ρmol Cas9 RNP", "result": "46-49%"},
      {"measurement": "HDR frequency relative to the unsynchronized cells", "setting": "[2]; 30 ρmol Cas9 RNP, 50 ρmol HDR template (templates 1-7)", "result": "overall higher HDR frequency"},
      {"measurement": "HDR frequency", "setting": "[2]; [8]", "result": 19, "unit": "%"},
      {"measurement": "HDR efficiency", "setting": "[2]; nocodazole synchronization, 10 ρmol Cas9 RNP", "result": "9-15%"},
      {"measurement": "HDR efficiency", "setting": "[2]; nocodazole synchronization, 30 ρmol Cas9 RNP", "result": "22-28%"},
      {"measurement": "HDR efficiency", "setting": "[2]; nocodazole synchronization, 100 ρmol Cas9 RNP", "result": "24-32%"},
      {"measurement": "Highest HDR frequency (representative gel of triplicate experiment)", "setting": "[2]; nocodazole synchronization, 100 ρmol of Cas9, 100 ρmol template 1", "result": 31, "unit": "%"},
      {"measurement": "Enhancement of NHEJ frequency by nocodazole synchronization", "setting": "[3]; [10]", "result": "more than two-fold"},
      {"measurement": "NHEJ frequency", "setting": "[3]; 10 ρmol Cas9 RNP", "result": "20-24%"},
      {"measurement": "NHEJ frequency", "setting": "[3]; 30 ρmol Cas9 RNP", "result": "45-47%"},
      {"measurement": "NHEJ frequency", "setting": "[3]; 100 ρmol Cas9 RNP", "result": "63-65%"},
      {"measurement": "Enhancement of HDR frequency by nocodazole synchronization", "setting": "[4]; [10]", "result": "over six-fold"},
      {"measurement": "HDR frequency", "setting": "[4]; 10 ρmol Cas9 RNP", "result": "5-6%"},
      {"measurement": "HDR frequency", "setting": "[4]; 30 ρmol Cas9 RNP", "result": "12-17%"},
      {"measurement": "HDR frequency", "setting": "[4]; 100 ρmol Cas9 RNP", "result": "24-25%"},
      {"measurement": "NHEJ frequency", "setting": "[5]; 30 ρmol Cas9 RNP", "result": 9, "unit": "%"},
      {"measurement": "NHEJ frequency", "setting": "[5]; 100 ρmol Cas9 RNP", "result": "28-31%"},
      {"measurement": "HDR events", "setting": "[6]", "result": "no HDR event was detected"},
      {"measurement": "Enrichment of cells arrested at M phase (DNA content, FACS)", "setting": "HEK293T cells", "result": "two-fold enrichment; also recorded: three-fold enrichment"}
    ]},
    {"molecule": "Cc1cn([C@H]2C[C@H](O)[C@@H](CO)O2)c(=O)[nH]c1=O", "note": "[thymidine]", "values": [
      {"measurement": "NHEJ frequency compared to the unsynchronized cells", "setting": "[1]; [7]", "result": "slightly reduced"},
      {"measurement": "NHEJ frequency compared to the unsynchronized cells (reduced or not)", "setting": "[1]; [11]", "result": "not"},
      {"measurement": "HDR frequency compared to the unsynchronized cells", "setting": "[2]; [7]", "result": "slightly reduced"},
      {"measurement": "HDR frequency compared to the unsynchronized cells (reduced or not)", "setting": "[2]; [11]", "result": "not"}
    ]},
    {"molecule": "template 1: 183-nt single-strand DNA oligonucleotide HDR donor encoding a HindIII site, 90-nt and 55-nt asymmetrical homology arms (DNA CCACCGCTACGAAGCTTGTCATTGGAGGTGACATCGATGTCCTC; single-stranded DNA HDR donor oligonucleotide, chemistry not given here)", "values": [
      {"measurement": "HDR frequency compared between templates", "setting": "[2]; 30 ρmol Cas9 RNP, 50 ρmol HDR template", "result": "lower HDR frequency than template 3"}
    ]},
    {"molecule": "template 2: single-stranded oligonucleotide HDR template with HindIII and BamHI sites, 30-nt homology arms (DNA GGATCCAAGCTT; single-stranded DNA HDR donor oligonucleotide, chemistry not given here)", "values": [
      {"measurement": "HDR frequency", "setting": "[2]; [12]", "result": 5, "unit": "%"}
    ]},
    {"molecule": "template 3: single-stranded oligonucleotide HDR template with HindIII and BamHI sites, 60-nt homology arms (DNA GGATCCAAGCTT; single-stranded DNA HDR donor oligonucleotide, chemistry not given here)", "values": [
      {"measurement": "HDR frequency", "setting": "[2]; [12]", "result": 19, "unit": "%"},
      {"measurement": "Increase of HDR frequency on extending homology arms from 30 nt to 60 nt", "setting": "[2]; nocodazole synchronization, vs template 2", "result": "four-fold"}
    ]},
    {"molecule": "template 4: single-stranded HDR template, 90-nt homology arms, complementary orientation (DNA GGATCCAAGCTT; single-stranded DNA HDR donor oligonucleotide, chemistry not given here)", "values": [
      {"measurement": "HDR frequency", "setting": "[2]; [12]", "result": 23, "unit": "%"}
    ]},
    {"molecule": "template 6: double-stranded HDR template PCR amplified from single-stranded template 5 (sense AAGCTTGGATCC; antisense GGATCCAAGCTT; DNA, phosphodiester; double-stranded PCR-amplified HDR donor)", "values": [
      {"measurement": "HDR frequency", "setting": "[2]; [12]", "result": "~7", "unit": "%"}
    ]},
    {"molecule": "template 7: double-stranded HDR template assembled from two fragments by overlapping PCR of HEK293T genomic DNA (sense AAGCTTGGATCC; antisense GGATCCAAGCTT; DNA, phosphodiester; double-stranded HDR donor assembled by overlapping PCR)", "values": [
      {"measurement": "HDR frequency", "setting": "[2]; [12]", "result": "~7", "unit": "%"}
    ]},
    {"molecule": "B1", "values": [
      {"measurement": "HDR frequency", "setting": "[2]; [12]", "result": 20, "unit": "%"}
    ]}
  ]
}
